Several values for one entry are separate records, joined by “and”; a condition that tells them apart may be missing. Equal entries are not always repeated.
Key:
[1] = system: HR+, HER2- T47D breast cancer spheroids; test: Multicellular tumor spheroid growth inhibition (SGI), T47D; format: cell-based, human
Description: The purpose of this example was to evaluate the combination effect of PF-07220060 and endocrine therapy in multicellular tumor spheroid growth inhibition (SGI). To model the characteristics and cellular behavior of human tumors, the activity of PF-07220060 was evaluated in three dimensional MCTS models of HR+ breast cancer and AR+ prostate cancer following PF-07220060 treatment as a single agent and in combination with fulvestrant • 1) in HR+, HER2-T47D breast cancer spheroids. • 2) in HR+, HER2+BT474 breast cancer spheroids, • 3) in BT474 spheroids, and • 4) in AR+ prostate carcinoma cell line (LNCaP) prostate cancer spheroids. Spheroids were treated with increasing concentrations of 100, 300, or 1000 nM PF-07220060 and compared to palbociclib at the clinically relevant concentration of 30 nM. Single agent PF-07220060 inhibited spheroid growth in a dose-dependent manner, with highest efficacy (86% SGI over the duration of treatment with 1000 nM) shown in the T47D BC spheroid model (Table 1). Combining 100 nM PF-07220060 with 1 nM fulvestrant in T47D cells increased SGI to 96% compared to either single agent alone (57 to 67% SGI with 100 nM PF-07220060 or 79% SGI with fulvestrant) (Table 1). BT474 spheroids were relatively less sensitive to PF-07220060 resulting in 52% SGI at 1000 nM.

[2] = Phase 1/1b clinical trial: safety (DLTs, treatment-emergent adverse events); format: in vivo, human
Description: As used herein, “dose limiting toxicity” (DLT) refers to the dosage of PF-07220060 that is contraindicative of a further increase in dosage.
An ongoing open-label, nonrandomized, dose-finding Phase 1/1b Study investigating the safety, tolerability, PK, and PD of PF-07220060 administered as a single agent and when administered in combination with endocrine therapy.
Adverse events of the patients dosed with PF-07220060 in the Phase 1/1b clinical trial were evaluated using the National Cancer Institute Common Terminology Criteria for Adverse Events (NCI CTCAE) version 4.03.

[3] = system: advanced or metastatic solid tumors; test: Phase 1/1b clinical trial: tumor response (best overall response, RECIST 1.1); format: in vivo, human
From the text: The present therapy may result in a complete response (CR), partial response (PR), progressive disease (PD), or stable disease (SD) in patients. Bioimaging can be used to evaluate the level of response to the therapy. Cytology and histology may also be used as needed (e.g., to locate any residual lesions). In some embodiments, the various levels of response can be evaluated in accordance with Table 1 below.
• For Part 1: participant must have evaluable lesion (including skin or bone lesion only). • For Part 2B and Part 2C: participants must have measurable disease as defined per RECIST (Response Evaluation Criteria in Solid Tumors) version 1.1 (Eisenhauer et al., European Journal of Cancer, 2009, 45 (2): 228-47). Tumor lesions previously irradiated or subjected to locoregional therapy will only be deemed measurable if progression at the treated site after completion of therapy is clearly documented.

[4] = 66 participants dosed in Part 1A, 1B, 1C and 1D
[5] = Part 1D, single agent 400 mg BID food cohort
[6] = Part 1D, single agent 400 mg BID food cohort, 6 participants
[7] = across all dose levels, by label
[8] = across all dose levels, Part 1A
[9] = any grade, all dose levels, Part 1A, 1B, 1C, by label
[10] = any grade, all dose levels, Part 1A, 1C, by label
[11] = overall, 66 participants dosed in Part 1
[12] = Part 1D food effect cohort (n = 6)
[13] = Total, all cohorts (27 patients)
[14] = Total, all cohorts (35 patients)
[15] = confirmed best overall response, Part 1D food effect cohort (n = 6)
[16] = confirmed best overall response, Total Part 1A (single agent), 1B, 1C, 1B + 1C, by label
[17] = confirmed best overall response, Total, all cohorts (n = 70)

In the case of `CC(C)n1c(C(C)(C)O)nc2c(F)cc(-c3nc(N[C@@H]4CCOC[C@H]4O)ncc3Cl)cc21` [PF-07220060, 1,5-anhydro-3-({5-chloro-4-[4-fluoro-2-(2-hydroxypropan-2-yl)-1-(propan-2-yl)-1H-benzimidazol-6-yl]pyrimidin-2-yl}amino)-2,3-dideoxy-D-threo-pentitol], the SGI ([1]; 100 nM single agent) is reported as 57% and 67%, the SGI ([1]; 300 nM single agent) is reported as 74% and the SGI ([1]; 1000 nM single agent) is reported as 86%. The “participants with any treatment-related TEAE, %” value ([2]; 66 participants dosed in Part 1) was 81.8%, the “number of all-causality TEAEs” value [2, 4] was 375 and the “participants with all-causality TEAEs, %” value [2, 4] was 89.4%. For the same compound, the “diarrhoea, Grade 3 treatment-related TEAE” value ([2]; Part 1A) was 5.9%, the “thrombocytopenia, Grade 3 treatment-related TEAE” value ([2]; Part 1A) was 5.9% and the “participants with treatment-related TEAE, %” value ([2]; Part 1A (single agent, 34), 1B (13), 1C (13), by label) was 79.4%. For the same compound, the “participants with Grade 5 all-causality TEAE (respiratory failure; unrelated to study drug)” value ([2]; Part 1A, 400 mg BID group) was “One”, the “Grade 4 / Grade 5 all-causality TEAEs” value ([2]; Part 1A, 1B, 1C, by label) was “No Grade 4 TEAEs were reported” and the “Grade 4 / Grade 5 treatment-related TEAEs” value ([2]; Part 1A, 1B, 1C, by label) was “no Grade 4 or Grade 5 treatment-related TEAEs reported”. The “anaemia, Grade 3 treatment-related TEAE” value ([2]; Part 1A, 1B, 1C, by label) was 5.9%, the “leukopenia, Grade 3 treatment-related TEAE” value ([2]; Part 1A, 1B, 1C, by label) was 5.9% and the “neutropenia, Grade 3 treatment-related TEAE” value ([2]; Part 1A, 1B, 1C, by label) was 14.7%. For the same compound, the “participants with Grade 3 treatment-related TEAEs, %” value ([2]; Part 1A, 1B, 1C, by label) was 26.5%, the “Grade 3, 4 or 5 treatment-related TEAEs” value [2, 5] was “No Grade 3, 4 nor 5 treatment-related TEAEs were reported” and the “Grade 3 or 5 TEAEs” value [2, 5] was “No Grade 3 or 5 TEAEs were reported”. For the same compound, the “diarrhoea, all-causality TEAE” value [2, 5] was 50.0%, the “diarrhoea, treatment-related TEAE” value [2, 5] was 50.0% and the “leukopenia, all-causality TEAE” value [2, 5] was 50.0%. The “leukopenia, treatment-related TEAE” value [2, 5] was 50.0%, the “neutropenia, all-causality TEAE” value [2, 5] was 50.0% and the “neutropenia, treatment-related TEAE” value [2, 5] was 50.0%. The “participants with Grade 4 all-causality TEAE (respiratory failure)” value [2, 5] was “One”, the “participants with TEAEs, %” value [2, 6] was 66.7% and the “participants with treatment-related TEAEs, %” value [2, 6] was 66.7%. For the same compound, the “anaemia, Grade 3 or higher (1A) / Grade 3 (1B, 1C) all-causality TEAE” value [2, 7] was 5.9%, the “leukopenia, Grade 3 or higher (1A) / Grade 3 (1B, 1C) all-causality TEAE” value [2, 7] was 5.9% and the “neutropenia, Grade 3 or higher (1A) / Grade 3 (1B, 1C) all-causality TEAE” value [2, 7] was 14.7%. For the same compound, the “number of Grade 3 or higher (Part 1A) / Grade 3 (Part 1C) all-causality TEAEs” value [2, 7] was 15, the “COVID-19, Grade 3 or higher all-causality TEAE” value [2, 8] was 5.9% and the “aspartate aminotransferase increased, Grade 3 or higher all-causality TEAE” value [2, 8] was 5.9%. For the same compound, the “diarrhoea, Grade 3 or higher all-causality TEAE” value [2, 8] was 5.9%, the “syncope, Grade 3 or higher all-causality TEAE” value [2, 8] was 5.9% and the “thrombocytopenia, Grade 3 or higher all-causality TEAE” value [2, 8] was 5.9%. The “participants with all-causality TEAEs, %” value ([2]; all dose levels, Part 1A (single agent, 34), 1B (13), 1C (13), by label) was 94.1%, the “aspartate aminotransferase increased, all-causality TEAE” value ([2]; any grade, all dose levels, Part 1A) was 20.6% and the “anaemia, all-causality TEAE” value [2, 9] was 35.3%. For the same compound, the “diarrhoea, all-causality TEAE” value [2, 9] was 35.3%, the “diarrhoea, treatment-related TEAE” value [2, 9] was 23.5% and the “fatigue, treatment-related TEAE” value [2, 9] was 11.8%. The “leukopenia, all-causality TEAE” value [2, 9] was 35.3%, the “nausea, all-causality TEAE” value [2, 9] was 29.4% and the “nausea, treatment-related TEAE” value [2, 9] was 26.5%. The “neutropenia, all-causality TEAE” value [2, 9] was 41.2%, the “neutropenia, treatment-related TEAE” value [2, 9] was 41.2% and the “vomiting, all-causality TEAE” value [2, 9] was 20.6%. For the same compound, the “anaemia, treatment-related TEAE” value [2, 10] was 29.4%, the “leukopenia, treatment-related TEAE” value [2, 10] was 29.4% and the “thrombocytopenia, treatment-related TEAE” value [2, 10] was 20.6%. For the same compound, the “vomiting, treatment-related TEAE” value [2, 10] was 14.7%, the “participants who experienced DLTs, %” value ([2]; of the 55 evaluable participants, all cohorts, as of Sep. 2, 2022) was 7.3% and the “anemia, treatment-related TEAE” value [2, 11] was 21.2%. For the same compound, the “diarrhea, treatment-related TEAE” value [2, 11] was 33.3%, the “leukopenia, treatment-related TEAE” value [2, 11] was 30.3% and the “nausea, treatment-related TEAE” value [2, 11] was 27.3%. For the same compound, the “neutropenia, treatment-related TEAE” value [2, 11] was 40.9%, the “participants with DLT of Grade 3 neutropenia” value ([2]; single agent 200 mg BID cohort) was “One” and the “participants with DLT of Grade 3 thrombocytopenia” value ([2]; single agent 500 mg BID cohort) was “Two”. The “Objective Response (CR + PR) for Patients without Breast Cancer, %” value ([3]; Part 1D food effect cohort (5 patients)) was “(20.0) %”, the “Disease Control (CR + PR + SD + Non-CR/Non-PD), %” value [3, 12] was “(50.0) %” and the “Objective Response (CR + PR), %” value [3, 12] was “(16.7) %”. The “Clinical Benefit Response, %” value ([3]; Patients with Breast Cancer (with Measurable Disease at Baseline), Total Part 1A (single agent), 1B, 1C, 1B + 1C, by label) was “(40.0) %”, the “Clinical Benefit Response, %” value ([3]; Patients with Breast Cancer (with Measurable Disease at Baseline), Total, all cohorts (27 patients)) was “(48.1) %” and the “Clinical Benefit Response, %” value ([3]; Patients with Breast Cancer, Total Part 1A (single agent), 1B, 1C, 1B + 1C, by label) was “(25.0) %”. For the same compound, the “Clinical Benefit Response, %” value ([3]; Patients with Breast Cancer, Total, all cohorts (35 patients)) was “(40.0) %”, the “Objective Response (CR + PR) for Patients with Breast Cancer (with Measurable Disease at Baseline), %” value [3, 13] was “(22.2) %” and the “Objective Response (CR + PR) for Patients with prior CDK4/6 inhibitor (with Measurable Disease at Baseline), %” value [3, 13] was “(22.2) %”. The “Objective Response (CR + PR) for Patients with Breast Cancer, %” value [3, 14] was “(17.1) %”, the “Objective Response (CR + PR) for Patients without Breast Cancer, %” value [3, 14] was “(2.9) %” and the “Disease Control (CR + PR + SD + Non-CR/Non-PD), %” value ([3]; Total, all cohorts (n = 70)) was “(65.7) %”. For the same compound, the “Objective Response (CR + PR), %” value ([3]; Total, all cohorts (n = 70)) was “(10.0) %”, the “Disease Control (CR + PR + SD + Non-CR/Non-PD), %” value ([3]; Total, all cohorts (n = 70), listed as PF-06873600) was 65.7% and the “Clinical Benefit Response, %” value ([3]; all evaluable patients, Part 1D food effect cohort (n = 6)) was “(33.3) %”. For the same compound, the “Clinical Benefit Response, %” value ([3]; all evaluable patients, Total Part 1A (single agent), 1B, 1C, 1B + 1C, by label) was “(26.3) %”, the “Clinical Benefit Response, %” value ([3]; all evaluable patients, Total, all cohorts (n = 70)) was “(34.3) %” and the “Non-CR/Non-PD, %” value [3, 15] was “(16.7) %”. For the same compound, the “Not evaluable (NE), %” value [3, 15] was “(16.7) %”, the “Partial response (PR), %” value [3, 15] was “(16.7) %” and the “Progressive disease (PD), %” value [3, 15] was “(33.3) %”. The “Stable disease (SD), %” value [3, 15] was “(16.7) %”, the “Non-CR/Non-PD, %” value [3, 16] was “(10.5) %” and the “Not evaluable (NE), %” value [3, 16] was “(23.7) %”. For the same compound, the “Progressive disease (PD), %” value [3, 16] was “(15.8) %”, the “Stable disease (SD), %” value [3, 16] was “(47.4) %” and the “Complete response (CR), %” value [3, 17] was “(1.4) %”. For the same compound, the “Non-CR/Non-PD, %” value [3, 17] was “(11.4) %”, the “Not evaluable (NE), %” value [3, 17] was “(14.3) %” and the “Partial response (PR), %” value [3, 17] was “(8.6) %”. The “Progressive disease (PD), %” value [3, 17] was “(18.6) %” and the “Stable disease (SD), %” value [3, 17] was “(44.3) %”.

Reference: patent US20250041298A1, “CDK4 INHIBITOR FOR THE TREATMENT OF CANCER” (Pfizer Inc., priority 2021, published 2025)
